Assay results published in patent publication US20060069132A1, “Azolecarboxamide herbicides” (priority 2004, published 2006).

Legend:
[1] = tested on: ducksalad; assay: Test D flooded paddy test; type: in vivo, Heteranthera limosa; conditions: 21 days, scale 0 to 100
Description: (§1) Three plastic pots (ca. 16-cm diameter) per rate were partially filled with sterilized Tama silt loam soil comprising a 35:50:15 ratio of sand, silt and clay and 2.6% organic matter. Separate plantings for each of the three pots were as follows. Seeds from the U.S. of ducksalad (Heteranthera limosa (Sw.) Willd.), smallflower umbrella sedge (Cyperus difformis L.) and purple redstem (Ammannia coccinea Rottb.), were planted into one 16-cm pot for each rate. Seeds from the U.S. of rice flatsedge (Cyperus iria L.), bearded sprangletop (Leptochloa fascicularis (Lam.) Gray), one stand of 9 or 10 water seeded rice seedlings (Oryza sativa L. cv. ‘Japonica—M202’), and one stand of 6 transplanted rice seedlings (Oryza sativa L. cv. ‘Japonica—M202’) were planted into one 16-cm pot for each rate. Seeds from the U.S. of barnyardgrass (Echinochloa crus-galli (L.) Beauv.), late watergrass (Echinochloa oryzicola Vasinger), early watergrass (Echinochloa oryzoides (Ard.) Fritsch) and junglerice (Echinochloa colona (L.) Link) were planted into one 16-cm pot for each rate. Plantings were sequential so that crop and weed species were at the 2.0 to 2.5-leaf stage at time of treatment.
(§2) Potted plants were grown in a greenhouse with day/night temperature settings of 29.5/26.7° C., and supplemental balanced lighting was provided to maintain a 16-hour photoperiod. Test pots were maintained in the greenhouse until test completion.
(§3) At time of treatment, test pots were flooded to 3 cm above the soil surface, treated by application of test compounds directly to the paddy water, and then maintained at that water depth for the duration of the test. Effects of treatments on rice and weeds were visually evaluated by comparison to untreated controls after 21 days. Plant response ratings are reported on a 0 to 100 scale; where 0 is no effect and 100 is complete control. A dash (-) response means no test result.

[2] = tested on: junglerice; assay: Test D flooded paddy test; type: in vivo, Echinochloa colona; conditions: 21 days, scale 0 to 100
Description: as §1, §2, §3

[3] = tested on: bearded sprangletop; assay: Test D flooded paddy test; type: in vivo, Leptochloa fascicularis; conditions: 21 days, scale 0 to 100
Description: as §1, §2, §3

[4] = tested on: corn (maize) cv. Pioneer 33G26; assay: Test G safening on corn by naphthalic anhydride seed treatment, preemergence; type: in vivo, Zea mays
Description: This test evaluated the safening of compounds of the invention on corn (maize; Zea mays L.) cv. ‘Pioneer 33G26’ by seed treatment with naphthalic anhydride (1,8-naphthalic anhydride). All corn seed had been first treated with fludioxonil and metaxyl applied at the manufacturer's recommended rate as per the Pioneer 33G26 label. Some of the corn seed were subsequently also treated with naphthalic anhydride as a 1% by weight seed dressing. The corn seed were planted in pots containing pasteurized Sassafras sandy loam soil, and then treatments were applied preemergence the same day. Treatments were applied by spraying the test compounds formulated in a non-phytotoxic solvent mixture, using a flat fan nozzle and a spray volume of 280 L/ha. The treatments were triply replicated and the results subsequently averaged. The pots were placed on a greenhouse bench using a complete randomized block design except for the first replicate, which was unrandomized. The plants were grown in the greenhouse and watered as needed with a dilute nutrient solution containing 200 ppm of N. Illumination was daylight supplemented by artificial sources to maintaining a photoperiod of 16 hours. The temperature was maintained at 28±2° C. during the day and 23±2° C. at night. The plant response was visually rated 25 days after treatment in comparison to untreated controls using a scale of 0 to 100, with 0 representing no effect and 100 representing complete plant death.

[5] = tested on: wheat cv. Retical; assay: Test H safening on wheat by naphthalic anhydride seed treatment, pre-/postemergence; type: in vivo, Triticum aestivum; set-up: key to Response of wheat, Without naphthalic anhydride seed treatment: 0 = no effect, 100 = complete plant death, vs untreated control; conditions: preemergence
Description: This test evaluated the safening of compounds of the invention on wheat (Triticum aestivumL.) cv. ‘Retical’ by seed treatment with naphthalic anhydride. Some of the wheat seed was treated with napthalic anhydride as a 1% by weight seed dressing. The wheat seed were planted in pots containing pasteurized Sassafras sandy loam soil. For postemergence testing the plants were grown 8 days to the 2-leaf stage at time of treatment. Preemergence treatments were applied the same day that the seeds were planted. Treatments were applied by spraying the test compounds formulated in a non-phytotoxic solvent mixture, using a flat fan nozzle and a spray volume of 280 L/ha. The preemergence treatments were triply replicated and the results subsequently averaged. The pots were placed on a growth chamber bench using a complete randomized block design for the preemergence test except for the first replicate, which was unrandomized. The plants were grown in the growth chamber and watered as needed with a dilute nutrient solution containing 200 ppm of N. Illumination was provided by fluorescent lamps giving 200-300 μE/m^2/S of photosynthetically active radiation over a 14-hour photoperiod. The temperature was maintained at 23±2° C. during the day and 17±2° C. at night. The effects of the treatments were rated 25 days after preemergence treatment and 14 days after postemergence treatment. The plant response was visually rated in comparison to untreated controls using a scale of 0 to 100, with 0 representing no effect and 100 representing complete plant death. The results for the compounds tested preemergence are listed in Table H1, and the results for the compounds tested postemergence are listed in Table H2.

**Q.** `CCn1nc(C(C)(C)C)cc1C(=O)Nc1cc(C(=O)NCC2CC2)ccn1` [Compound 155] was tested. Which “Plant response rating, Ducksalad” value ([1]; 32 g ai/ha) did it give?
**A.** Its value is 0.

**Q.** What about the “Plant response rating, Ducksalad” value ([1]; 64 g ai/ha) of the same compound?
**A.** Its value is 0.

**Q.** And the “Plant response rating, Ducksalad” value ([1]; 125 g ai/ha)?
**A.** The value was 0.

**Q.** And the “Plant response rating, Ducksalad” value ([1]; 250 g ai/ha)?
**A.** Its value is 60.

**Q.** And the “Plant response rating, Ducksalad” value ([1]; 500 g ai/ha)?
**A.** The value was 60.

**Q.** And the “Plant response rating, Junglerice” value ([2]; 32 g ai/ha)?
**A.** The value was 20.

**Q.** What about the “Plant response rating, Junglerice” value ([2]; 64 g ai/ha) of the same compound?
**A.** Its value is 40.

**Q.** And the “Plant response rating, Junglerice” value ([2]; 125 g ai/ha)?
**A.** Its value is 40.

**Q.** And the “Plant response rating, Junglerice” value ([2]; 250 g ai/ha)?
**A.** The value was 40.

**Q.** And the “Plant response rating, Junglerice” value ([2]; 500 g ai/ha)?
**A.** The value was 65.

**Q.** What about the “Plant response rating, Sprangletop, Bearded” value ([3]; 32 g ai/ha) of the same compound?
**A.** The value was 30.

**Q.** And the “Plant response rating, Sprangletop, Bearded” value ([3]; 64 g ai/ha)?
**A.** Its value is 30.

**Q.** And the “Plant response rating, Sprangletop, Bearded” value ([3]; 125 g ai/ha)?
**A.** Its value is 30.

**Q.** What about the “Plant response rating, Sprangletop, Bearded” value ([3]; 250 g ai/ha) of the same compound?
**A.** Its value is 40.

**Q.** And the “Plant response rating, Sprangletop, Bearded” value ([3]; 500 g ai/ha)?
**A.** The value was 75.

**Q.** Which results are given for `CCn1nc(C(C)(C)C)cc1C(=O)Nc1cc(C(=O)N(C)C)ccn1` [Compound 156, 2-[[[3-(1,1-dimethylethyl)-1-ethyl-1H-pyrazol-5-yl]carbonyl]amino]-N,N-dimethyl-4-pyridinecarboxamide]?
**A.** Response of corn, With 1% naphthalic anhydride seed treatment ([4]; 62 g a.i./ha): 0; Response of corn, Without naphthalic anhydride seed treatment ([4]; 62 g a.i./ha): 2; Response of corn, With 1% naphthalic anhydride seed treatment ([4]; 125 g a.i./ha): 0; Response of corn, Without naphthalic anhydride seed treatment ([4]; 125 g a.i./ha): 30; Response of corn, With 1% naphthalic anhydride seed treatment ([4]; 250 g a.i./ha): 17; Response of corn, Without naphthalic anhydride seed treatment ([4]; 250 g a.i./ha): 65; Response of corn, With 1% naphthalic anhydride seed treatment ([4]; 500 g a.i./ha): 17; Response of corn, Without naphthalic anhydride seed treatment ([4]; 500 g a.i./ha): 88; Response of wheat, With 1% naphthalic anhydride seed treatment ([5]; 62 g a.i./ha): 7; Response of wheat, Without naphthalic anhydride seed treatment ([5]; 62 g a.i./ha): 67; Response of wheat, With 1% naphthalic anhydride seed treatment ([5]; 125 g a.i./ha): 70; Response of wheat, Without naphthalic anhydride seed treatment ([5]; 125 g a.i./ha): 100; Response of wheat, With 1% naphthalic anhydride seed treatment ([5]; 250 g a.i./ha): 85; Response of wheat, Without naphthalic anhydride seed treatment ([5]; 250 g a.i./ha): 100; Response of wheat, With 1% naphthalic anhydride seed treatment ([5]; 500 g a.i./ha): 99; Response of wheat, Without naphthalic anhydride seed treatment ([5]; 500 g a.i./ha): 100
